Data: ChEMBL document CHEMBL1212771, “BEL-2, an extended-spectrum beta-lactamase with increased activity toward expanded-spectrum cephalosporins in Pseudomonas aeruginosa” (Antimicrob Agents Chemother, 2010)
Values after ≈ are worked out from the molar mass of the structure shown.

How the values were obtained:
[1] = tested on: Pseudomonas aeruginosa; test: Ratio of Km for Pseudomonas aeruginosa 51170 beta-lactamase BEL-1 to Km for Pseudomonas aeruginosa 531 beta-lactamase BEL-2
[2] = tested on: Pseudomonas aeruginosa; test: Antimicrobial activity against Pseudomonas aeruginosa 51170 expressing beta-lactamase BEL-1 by solid agar dilution method; format: functional
[3] = tested on: Pseudomonas aeruginosa; test: Antimicrobial activity against Pseudomonas aeruginosa 531 expressing beta-lactamase BEL-2 by solid agar dilution method; format: functional
[4] = tested on: Escherichia coli; test: Antimicrobial activity against Escherichia coli TOP10 expressing recombinant beta-lactamase BEL-1 by solid agar dilution method; format: functional
[5] = tested on: Escherichia coli; test: Antimicrobial activity against Escherichia coli TOP10 expressing recombinant beta-lactamase BEL-2 by solid agar dilution method; format: functional
[6] = tested on: Escherichia coli; test: Antimicrobial activity against Escherichia coli TOP10 by solid agar dilution method; format: functional

SMILES | Ratio [1] | MIC [2] [µg/mL] | MIC [3] [µg/mL] | MIC [4] [µg/mL] | MIC [5] [µg/mL] | MIC [6] [µg/mL]
CO/N=C(\C(=O)N[C@@H]1C(=O)N2C(C(=O)O)=C(COC(N)=O)CS[C@H]12)c1ccco1 [CEFUROXIME] | 300 | > 512 | > 512 | 128 | 32 | 2 (≈ 4.71 µM)
CO/N=C(\C(=O)N[C@@H]1C(=O)N2C(C(=O)[O-])=C(C[N+]3(C)CCCC3)CS[C@H]12)c1csc(N)n1 | – | 4 (≈ 8.32 µM) | 16 (≈ 33.3 µM) | 0.25 | 1 | –
CC1(C)S[C@@H]2[C@H](NC(=O)[C@H](C(=O)O)c3ccsc3)C(=O)N2[C@H]1C(=O)O [TICARCILLIN] | – | > 512 | > 512 | > 512 | > 512 | 4 (≈ 10.4 µM)
CO/N=C(\C(=O)N[C@@H]1C(=O)N2C(C(=O)O)=C(COC(C)=O)CS[C@H]12)c1csc(N)n1 [CEFOTAXIME] | – | 32 (≈ 70.3 µM) | 256 (≈ 562 µM) | 4 | 32 | 0.12 (≈ 0.263 µM)
CO/N=C(\C(=O)N[C@@H]1C(=O)N2C(C(=O)[O-])=C(C[n+]3cccc4c3CCC4)CS[C@H]12)c1csc(N)n1 [CEFPIROME] | – | 16 (≈ 31.1 µM) | 64 (≈ 124 µM) | 0.25 | 0.5 | 0.06 (≈ 0.117 µM)
CC(C)(O/N=C(\C(=O)N[C@@H]1C(=O)N2C(C(=O)[O-])=C(C[n+]3ccccc3)CS[C@H]12)c1csc(N)n1)C(=O)O [CEFTAZIDIME] | < 3 | 32 (≈ 58.5 µM) | 256 (≈ 468 µM) | 16 | 128 | 0.06 (≈ 0.11 µM)
CO[C@@]1(NC(=O)Cc2cccs2)C(=O)N2C(C(=O)O)=C(COC(N)=O)CS[C@@H]21 [CEFOXITIN] | – | 512 (≈ 1200 µM) | 512 (≈ 1200 µM) | 2 | 2 | 2 (≈ 4.68 µM)
